Measurements taken from patent US20250368647A1, “NITROGEN CONTAINING CONDENSED 2,3-DIHYDROQUINAZOLINONE COMPOUNDS AS NAV1.8 INHIBITORS” (GLAXOSMITHKLINE INTELLECTUAL PROPERTY DEVELOPMENT LIMITED, priority 2022, published 2025).
Counter-ions that a name gives are not always drawn.

Biological target: human Nav1.8 (Homo sapiens (Human), UniProt Q9Y5Y9)
Assay: QPatch 48 HTX voltage-clamp electrophysiology, half inactivation state (V1/2) protocol, HEK293-Nav1.8 cells
Type: cell-based
Details: HEK293 cells expressing human Nav1.8, human Navβ1 and human TREK1, P2 current
Summary of the method: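 HEK293 cells co-expressing Navβ1 and TREK1 were voltage-clamped from −100 mV: a 20 ms step to 0 mV, 8 s inactivation at −46 mV, 20 ms at −100 mV, then a 20 ms P2 test step to 0 mV, repeated every 15 s. P2 current was normalized to vehicle and full block, corrected for run-down, and Hill-fitted (4–6 concentrations) for IC50.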

Sequence of human Nav1.8 (Q9Y5Y9 whole entry): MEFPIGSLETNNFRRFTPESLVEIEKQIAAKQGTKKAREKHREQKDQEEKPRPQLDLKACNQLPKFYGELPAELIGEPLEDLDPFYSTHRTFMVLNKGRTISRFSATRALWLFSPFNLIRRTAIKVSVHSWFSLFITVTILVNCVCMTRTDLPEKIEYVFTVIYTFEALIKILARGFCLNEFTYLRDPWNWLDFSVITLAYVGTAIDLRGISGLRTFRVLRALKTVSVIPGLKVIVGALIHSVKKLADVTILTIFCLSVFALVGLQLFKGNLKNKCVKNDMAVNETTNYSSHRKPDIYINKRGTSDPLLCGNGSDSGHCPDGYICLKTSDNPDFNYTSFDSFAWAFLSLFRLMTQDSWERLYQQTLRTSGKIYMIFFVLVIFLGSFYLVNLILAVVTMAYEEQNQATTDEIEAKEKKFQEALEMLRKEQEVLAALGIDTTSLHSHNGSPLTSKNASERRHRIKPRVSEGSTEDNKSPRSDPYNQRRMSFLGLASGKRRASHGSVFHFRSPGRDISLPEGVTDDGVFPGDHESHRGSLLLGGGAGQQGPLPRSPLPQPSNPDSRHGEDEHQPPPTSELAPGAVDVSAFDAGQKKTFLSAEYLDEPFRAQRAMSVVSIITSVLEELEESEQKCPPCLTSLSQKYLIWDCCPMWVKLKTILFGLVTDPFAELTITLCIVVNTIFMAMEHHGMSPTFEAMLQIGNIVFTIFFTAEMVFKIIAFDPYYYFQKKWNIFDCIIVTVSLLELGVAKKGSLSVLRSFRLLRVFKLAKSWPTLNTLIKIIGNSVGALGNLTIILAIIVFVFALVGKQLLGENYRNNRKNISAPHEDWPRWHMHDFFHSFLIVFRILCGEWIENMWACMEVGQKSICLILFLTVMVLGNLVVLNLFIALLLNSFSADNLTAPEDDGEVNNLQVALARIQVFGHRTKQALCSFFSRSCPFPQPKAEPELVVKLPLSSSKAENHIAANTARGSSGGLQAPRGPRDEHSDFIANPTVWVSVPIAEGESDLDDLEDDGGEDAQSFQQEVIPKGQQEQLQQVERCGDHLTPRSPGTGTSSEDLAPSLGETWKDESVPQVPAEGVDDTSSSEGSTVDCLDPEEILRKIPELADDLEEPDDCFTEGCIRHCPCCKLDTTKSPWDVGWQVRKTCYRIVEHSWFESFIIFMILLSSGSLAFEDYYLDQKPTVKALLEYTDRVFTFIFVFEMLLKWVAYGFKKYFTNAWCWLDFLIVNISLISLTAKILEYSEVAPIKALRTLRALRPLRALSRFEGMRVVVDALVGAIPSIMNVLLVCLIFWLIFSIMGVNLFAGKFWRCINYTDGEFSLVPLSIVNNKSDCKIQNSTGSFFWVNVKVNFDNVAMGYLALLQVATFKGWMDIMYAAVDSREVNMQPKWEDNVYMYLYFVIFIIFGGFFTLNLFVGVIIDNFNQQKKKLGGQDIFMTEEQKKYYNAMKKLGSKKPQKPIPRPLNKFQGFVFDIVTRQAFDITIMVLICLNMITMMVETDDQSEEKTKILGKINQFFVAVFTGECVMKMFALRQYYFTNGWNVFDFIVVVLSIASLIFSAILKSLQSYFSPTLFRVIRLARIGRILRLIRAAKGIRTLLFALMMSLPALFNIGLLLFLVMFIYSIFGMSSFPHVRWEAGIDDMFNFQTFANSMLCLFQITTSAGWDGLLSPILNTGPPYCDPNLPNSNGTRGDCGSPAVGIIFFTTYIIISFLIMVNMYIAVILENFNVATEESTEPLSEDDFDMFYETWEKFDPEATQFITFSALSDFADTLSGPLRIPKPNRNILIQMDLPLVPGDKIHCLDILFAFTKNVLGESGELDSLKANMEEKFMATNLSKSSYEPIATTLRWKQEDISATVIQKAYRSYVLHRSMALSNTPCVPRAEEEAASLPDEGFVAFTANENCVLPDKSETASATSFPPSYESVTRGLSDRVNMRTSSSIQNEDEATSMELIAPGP
Sequence of human Nav1.8 (Q07699 19-218 partner): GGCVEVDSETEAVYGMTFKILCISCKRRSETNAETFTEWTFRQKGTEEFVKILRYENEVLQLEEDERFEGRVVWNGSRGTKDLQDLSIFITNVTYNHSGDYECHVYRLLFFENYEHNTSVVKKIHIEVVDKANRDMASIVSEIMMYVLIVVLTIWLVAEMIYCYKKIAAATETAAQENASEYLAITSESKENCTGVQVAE

Compared with `O=C1c2cc(F)c(C(F)(F)F)cc2N2CN1c1ccc(=O)[nH]c1NCCCc1c2ccc(F)c1F` [Example 92, 2,8,9-Trifluoro-3-(trifluoromethyl)-10,11,12,13-tetrahydro-19H-5,18-methano-dibenzo[f,i]pyrido[2,3-b][1,4,8]triazacyclotridecine-15,19(14H)-dione, methanesulfonic acid salt], `Cl.O=C1c2cc(F)c(C(F)(F)F)cc2N2CN1c1ccc(=O)[nH]c1CNCCCc1c2ccc(F)c1F` [Example 106, 2^6,3^3,3^4-Trifluoro-2^7-(trifluoromethyl)-1^1,1^2,2^1,2^2,2^3,2^4-hexahydro-7-aza-2(3,1)-quinazolina-1(5,6)-pyridina-3(1,2)-benzenacyclooctaphane-1^2,2^4-dione hydrochloride] is lower in “Nav1.8, pIC50” value: 8.4 for the first, 8.1 for the second.

Going from `O=C1c2cc(F)c(Cl)cc2N2CN1c1ccc(=O)[nH]c1NCCCc1cc(F)ccc12` [Example 93, 3-Chloro-2,8-difluoro-10,11,12,13-tetrahydro-19H-5,18-methanodibenzo[f,i]pyrido[2,3-b]-[1,4,8]triazacyclotridecine-15,19(14H)-dione] to `O=C1c2cc(Cl)c(F)cc2N2CN1c1ccc(=O)[nH]c1NCCCc1cc(F)ccc12` [Example 96, 2-Chloro-3,8-difluoro-10,11,12,13-tetrahydro-19H-5,18-methanodibenzo[f,i]pyrido[2,3-b]-[1,4,8]triazacyclotridecine-15,19(14H)-dione], the “Nav1.8, pIC50” value falls from 8.1 to 7.5.

First: O=C1c2cc(F)c(Cl)cc2N2CN1c1ccc(=O)[nH]c1NCCCc1c2ccc(F)c1F [Example 94, 3-Chloro-2,8,9-trifluoro-10,11,12,13-tetrahydro-19H-5,18-methanodibenzo[f,i]pyrido[2,3-b][1,4,8]triazacyclotridecine-15,19(14H)-dione]
Second: Cl.O=C1c2cc(Cl)c(F)cc2N2CN1c1ccc(=O)[nH]c1NCCCc1c2ccc(F)c1F [Example 101, 2-Chloro-3,8,9-trifluoro-10,11,12,13-tetrahydro-19H-5,18-methanodibenzo[f,i]pyrido[2,3-b]-[1,4,8]triazacyclotridecine-15,19(14H)-dione, hydrochloride]
The “Nav1.8, pIC50” value of the first is higher: 8.1 for the first, 7.8 for the second.

`N#Cc1cc2c(cc1F)C(=O)N1CN2c2ccc(F)cc2CCCNc2[nH]c(=O)ccc21` [Example 95, 2,8-Difluoro-15,19-dioxo-10,11,12,13,14,15-hexahydro-19H-5,18-methanodibenzo[f,i]pyrido-[2,3-b][1,4,8]triazacyclotridecine-3-carbonitrile] and `Cl.N#Cc1cc2c(cc1Cl)C(=O)N1CN2c2ccc(F)cc2CCCNc2[nH]c(=O)ccc21` [Example 100, 2-Chloro-8-fluoro-15,19-dioxo-10,11,12,13,14,15-hexahydro-19H-5,18-methano-dibenzo[f,i]pyrido[2,3-b][1,4,8]triazacyclotridecine-3-carbonitrile, hydrochloride] are the same in “Nav1.8, pIC50” value: 7.5 for the first, 7.5 for the second.

`O=C1c2c(ccc(C(F)(F)F)c2F)N2CN1c1ccc(=O)[nH]c1NCCCc1c2ccc(F)c1F` [Example 97, 1,8,9-Trifluoro-2-(trifluoromethyl)-10,11,12,13-tetrahydro-19H-5,18-methanodibenzo[f,i]pyrido-[2,3-b][1,4,8]triazacyclotridecine-15,19(14H)-dione] and `O=C1c2cc(F)c(F)cc2N2CN1c1ccc(=O)[nH]c1NCCCc1c2ccc(F)c1F` [Example 98, 2,3,8,9-Tetrafluoro-10,11,12,13-tetrahydro-19H-5,18-methanodibenzo[f,i]pyrido[2,3-b]-[1,4,8]triazacyclotridecine-15,19(14H)-dione, formic acid salt] are the same in “Nav1.8, pIC50” value: 7.6 for the first, 7.6 for the second.

Compared with `N#Cc1cc2c(cc1F)C(=O)N1CN2c2ccc(F)c(F)c2CCCNc2[nH]c(=O)ccc21` [Example 99, 2,8,9-Trifluoro-15,19-dioxo-10,11,12,13,14,15-hexahydro-19H-5,18-methano-dibenzo [f,i]pyrido[2,3-b][1,4,8]triazacyclotridecine-3-carbonitrile], `Cl.N#Cc1cc2c(cc1F)C(=O)N1CN2c2ccc(F)c(Cl)c2CNCCCc2[nH]c(=O)ccc21` [Example 110, 3^3-Chloro-2^6,3^4-difluoro-1^2,2^4-dioxo-1^1,1^2,2^1,2^2,2^3 2^4-hexahydro-5-aza-2(3,1)-quinazolina-1(5,6)-pyridina-3(1,2)-benzenacyclooctaphane-2^7-carbonitrile hydrochloride] is lower in “Nav1.8, pIC50” value: 7.7 for the first, 6.8 for the second.

Compared with `O=C1c2cc(F)c(C(F)(F)F)cc2N2CN1c1ccc(=O)[nH]c1CNCCc1cc(F)ccc12` [Example 102, 2,8-Difluoro-3-(trifluoromethyl)-10,11,12,13-tetrahydro-19H-5,18-methanodibenzo[b,l]pyrido[3,2-f][1,5,9]triazacyclotridecine-15,19(14H)-dione], `Cl.O=C1c2cc(F)c(C(F)(F)F)cc2N2CN1c1ccc(=O)[nH]c1CNCCCc1cc(F)ccc12` [Example 105, 2^6,3^4-Difluoro-2^7-(trifluoromethyl)-1^1,1^2,2^1,2^2,2^3,2^4-hexahydro-7-aza-2(3,1)-quinazolina-1(5,6)-pyridina-3(1,2)-benzenacyclooctaphane-1^2,2^4-dione hydrochloride] is higher in “Nav1.8, pIC50” value: 7.1 for the first, 7.8 for the second.

Going from `O=C1c2cc(C(F)(F)F)ccc2N2CN1c1ccc(=O)[nH]c1CNCCc1cc(F)ccc12` [Example 103, 8-Fluoro-2-(trifluoromethyl)-10,11,12,13-tetrahydro-19H-5,18-methanodibenzo[b,l]pyrido[3,2-f][1,5,9]triazacyclotridecine-15,19(14H)-dione] to `O=C1c2cc(C(F)(F)F)ccc2N2CN1c1ccc(=O)[nH]c1CNCCCc1cc(F)ccc12` [Example 104, 3^4-Fluoro-2^6-(trifluoromethyl)-1^1,1^2,2^1,2^2,2^3,2^4-hexahydro-7-aza-2(3,1)quinazolina-1(5,6)-pyridina-3(1,2)-benzenacyclooctaphane-1^2,2^4-dione], the “Nav1.8, pIC50” value rises from 6.4 to 6.9.

First: Cl.O=C1c2cc(F)c(C(F)(F)F)cc2N2CN1c1ccc(=O)[nH]c1CCCNCc1cc(F)ccc12 [Example 107, 2^6,3^4-Difluoro-2^7-(trifluoromethyl)-1^1,1^2,2^1,2^2,2^3,2^4-hexahydro-5-aza-2(3,1)-quinazolina-1(5,6)-pyridina-3(1,2)-benzenacyclooctaphane-1^2,2^4-dione hydrochloride]
Second: Cl.O=C1c2cc(F)c(C(F)(F)F)cc2N2CN1c1ccc(=O)[nH]c1CCNCCc1cc(F)ccc12 [Example 111, 2^6,3^4-Difluoro-2^7-(trifluoromethyl)-1^1,1^2,2^1,2^2,2^3,2^4-hexahydro-6-aza-2(3,1)-quinazolina-1(5,6)-pyridina-3(1,2)-benzenacyclooctaphane-1^2,2^4-dione hydrochloride]
The “Nav1.8, pIC50” value of the first is higher: 7.3 for the first, 7.1 for the second.

Compared with `Cl.O=C1c2cc(F)c(C(F)(F)F)cc2N2CN1c1ccc(=O)[nH]c1CCCNCc1c2ccc(F)c1F` [Example 108, 2^6,3^3,3^4-trifluoro-2^7-(trifluoromethyl)-1^1,1^2,2^1,2^2,2^3,2^4-hexahydro-5-aza-2(3,1)-quinazolina-1(5,6)-pyridina-3(1,2)-benzenacyclooctaphane-1^2,2^4-dione hydrochloride], `Cl.O=C1c2cc(F)c(F)cc2N2CN1c1ccc(=O)[nH]c1CCCNCc1c2ccc(F)c1Cl` [Example 109, 3^3-Chloro-2^6,2^7,3^4-trifluoro-1^1,1^2,2^1,2^2,2^3,2^4-hexahydro-5-aza-2(3,1)-quinazolina-1(5,6)-pyridina-3(1,2)-benzenacyclooctaphane-1^2,2^4-dione hydrochloride] is lower in “Nav1.8, pIC50” value: 7.6 for the first, 6.8 for the second.

Compared with `CN1CCc2cc(F)ccc2N2CN(C(=O)c3cc(F)c(C(F)(F)F)cc32)c2ccc(=O)[nH]c2CC1` [Example 112, 2^6,3^4-Difluoro-6-methyl-2^7-(trifluoromethyl)-1^1,1^2,2^1,2^2,2^3,2^4-hexahydro-6-aza-2(3,1)-quinazolina-1(5,6)-pyridina-3(1,2)-benzenacyclooctaphane-1^2,2^4-dione], `CN1CCCc2[nH]c(=O)ccc2N2CN(c3cc(F)c(F)cc3C2=O)c2ccc(F)c(Cl)c2C1.Cl` [Example 113, 3^3-Chloro-2^6,2^7,3^4-trifluoro-5-methyl-1^1,1^2,2^1,2^2,2^3,2^4-hexahydro-5-aza-2(3,1)-quinazolina-1(5,6)-pyridina-3(1,2)-benzenacyclooctaphane-1^2,2^4-dione hydrochloride] is higher in “Nav1.8, pIC50” value: 6.2 for the first, 6.9 for the second.

Same assay, conditions: HEK293 cells expressing human Nav1.8, human Navβ1 and human TREK1, P2 current, read-out: Nav1.8, pIC50 (converted)

`C[C@H]1NCCc2[nH]c(=O)ccc2N2CN(c3ccc(C(F)(F)F)cc3C2=O)c2ccc(F)cc21` [Example 115, (10R)-8-fluoro-10-methyl-2-(trifluoromethyl)-10,11,12,13-tetrahydro-19H-5,18-methanodibenzo[c,f]pyrido[3,2-j][1,5,9]triazacyclotridecine-15,19(14H)-dione] and `C[C@@H]1NCCc2[nH]c(=O)ccc2N2CN(c3ccc(C(F)(F)F)cc3C2=O)c2ccc(F)cc21` [Example 116, (10S)-8-fluoro-10-methyl-2-(trifluoromethyl)-10,11,12,13-tetrahydro-19H-5,18-methanodibenzo[c,f]pyrido[3,2-j][1,5,9]triazacyclotridecine-15,19(14H)-dione] are within 1.5-fold of each other in IC50: 100 nM for the first, 126 nM for the second.

First: C[C@H]1NCCc2[nH]c(=O)ccc2N2CN(c3cc(C(F)(F)F)c(F)cc3C2=O)c2ccc(F)cc21 [Example 118, (10R)-2,8-difluoro-10-methyl-3-(trifluoromethyl)-10,11,12,13-tetrahydro-19H-5,18-methanodibenzo[c,f]pyrido[3,2-j][1,5,9]triazacyclotridecine-11(10H)-dione]
Second: C[C@@H]1NCCc2[nH]c(=O)ccc2N2CN(c3cc(C(F)(F)F)c(F)cc3C2=O)c2ccc(F)cc21 [Example 119, (10S)-2,8-Difluoro-10-methyl-3-(trifluoromethyl)-10,11,12,13-tetrahydro-19H-5,18-methanodibenzo[c,f]pyrido[3,2-j][1,5,9]triazacyclotridecine-11(10H)-dione]
The IC50 of the first is 20-fold lower: 31.6 nM for the first, 631 nM for the second.
